# Laboratory results: US9511072B2, “Methods of modulating cell proliferation and cyst formation in polycystic kidney and liver diseases” (The Medical College of Wisconsin, Inc., priority 2006, dated 2016)
# Tests used:
# REC11 cells = assay: BrdU proliferation of EGF-stimulated REC11 cystic renal epithelial cells; format: cell-based, mouse; settings: 10 μM, 36 hrs, after EGF 25 ng/ml for 6 hours
# Excerpt: REC11 cystic cell line is a conditionally immortalized epithelial collecting tubule (CT) cell line derived from the cystic kidneys of the BPK mouse model of human ARPKD crossed to the ImmortoMouse. The BPK mouse as a human ARPKD model has been described in Nauta J. et al., Pediatr Nephrol 1993, 7:163-172 and Nauta J. et al., Pediatr Res 1995, 37:755-763. The procedures for immortalization, cell isolation, cell culture and the complete phenotypic characterization of this cell line have been described in detail in Sweeney W. E. et al., Am J Physiol C Physiol 2001, 281:C1695-705. All analysis and experiments were performed on REC11 cells grown for a minimum 6 days under non-permissive conditions to eliminate residual Large T.
# Proliferation of REC11 cells was stimulated by exposure of the cells for 6 hours with EGF (25 ng/ml). Next, the cells were treated with vehicle, HET0016 (10 μM, a 20-HETE synthesis inhibitor), HET0016 (20 μM), DDMS (10 μM, a 20-HETE synthesis inhibitor), or WIT-002 (10 μM, a 20-HETE antagonist) for 36 hrs, pulsed with BrdU, and then stained for BrdU labeled cells to determine the degree of cell proliferation. […] Cells treated with a higher dose of HET0016 (20 μM) (column C) reduced proliferation by 75% (p<0.020). Cells treated with another chemically dissimilar inhibitor of the synthesis of 20-HETE, DDMS (10 μM) (column D), reduced proliferation by 47% (p<0.05). Cells treated with WIT-002 (10 μM) (column E) reduced proliferation by 25%.
# cystic BPK cells = assay: BrdU incorporation in cystic BPK cells; format: cell-based, mouse; settings: 10 μM, 36 hours; vehicle 118
# Procedure: To determine the level of proliferation in the cystic BPK cells, chemically dissimilar inhibitors of cytochrome P450 4A (CYP4A) and 4F (CYP4F) inhibitors, specifically HET-0016 (10 and 20 μM) and DDMS (10 μM), were incubated for 36 hours with the BPK cells. Three hours prior to the harvesting of the cells, 5-bromo-2′-deoxyuridine (BrdU) at a concentration of 30 μM was added to determine the level of cell cycle inhibition. The cells were subsequently methanol fixed and BrdU-positive cells were identified by immunohistology with biotinylated monoclonal anti-BrdU antibody (Zymed, South San Francisco, Calif.). Data were expressed as the percentage of BrdU-labeled cells per 500 counted cells.
# 20-HETE = settings: cited from earlier work
SMILES,reduction of proliferation (BrdU labeled cells) vs vehicle (REC11 cells) [%],BrdU-positive cells per 500 total cells counted (cystic BPK cells),20-HETE levels in vivo (20-HETE)
"CS(=O)(=O)NC(=O)CCCCCCCCCC=C(Br)Br [DDMS, dibromododecenyl methylsulfonimide]",47,63 BrdU(+) cells,–
"C#CCCCCCCCCCCCCCCCC(=O)O [Compound 17-ODYA, 17-Octadecynoic acid]",–,–,reduce 20-HETE levels in vivo
"Nn1nnc2ccccc21 [Compound 1-ABT, 1-aminobenzotriazole]",–,–,reduce 20-HETE levels in vivo
"O=C(O)CCCC/C=C\CCCCCCC/C=C\CCCCO [WIT-002, 20-hydroxyeicosa-6(Z),15(Z)-dienoic acid]",25,–,–
